Patent US7981903B2, “2-[2-{phenylamino}-1H-pyrrolo[2,3-D]pyrimidin-4-yl)amino] benzamide derivatives as IGF-1R inhibitors for the treatment of cancer” (GlaxoSmithKline LLC, priority 2007, dated 2011)

Tests used:
human IGF1R (hIGF1R) = molecular target: T1, human IGF1R (hIGF1R) (Homo sapiens, UniProt P08069); assay: TR-FRET kinase assay of purified hIGF1R; assay type: biochemical; settings: activated hIGF1R 0.5 nM, 10 μM ATP, values given as pIC50 category, read-out: IGF-1R pIC50 (converted)
T1 construct: containing amino acid residues 957-1367 of human IGF1R; made in house; host or cells: Sf9 cells (baculovirus)
T1 sequence (P08069 957-1367): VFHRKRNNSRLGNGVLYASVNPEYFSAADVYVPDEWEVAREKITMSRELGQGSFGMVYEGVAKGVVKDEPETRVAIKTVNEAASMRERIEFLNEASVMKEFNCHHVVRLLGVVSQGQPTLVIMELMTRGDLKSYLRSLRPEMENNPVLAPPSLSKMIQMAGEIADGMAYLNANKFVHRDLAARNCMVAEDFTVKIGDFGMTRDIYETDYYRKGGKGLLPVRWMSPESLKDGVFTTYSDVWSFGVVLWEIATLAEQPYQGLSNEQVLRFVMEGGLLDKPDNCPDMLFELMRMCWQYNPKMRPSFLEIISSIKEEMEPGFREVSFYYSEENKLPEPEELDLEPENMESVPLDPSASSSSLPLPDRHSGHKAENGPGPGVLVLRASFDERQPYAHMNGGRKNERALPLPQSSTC

human IR (hIR) = molecular target: T2, human IR (hIR) (Homo sapiens, UniProt P06213); assay: TR-FRET kinase assay of purified hIR; assay type: biochemical; settings: activated hIR 0.5 nM, 10 μM ATP, values given as pIC50 category
T2 construct: containing amino acid residues 979-1382 of human IR; made in house; host or cells: Sf9 cells (baculovirus), same process as hIGF1R
T2 sequence (P06213 979-1382): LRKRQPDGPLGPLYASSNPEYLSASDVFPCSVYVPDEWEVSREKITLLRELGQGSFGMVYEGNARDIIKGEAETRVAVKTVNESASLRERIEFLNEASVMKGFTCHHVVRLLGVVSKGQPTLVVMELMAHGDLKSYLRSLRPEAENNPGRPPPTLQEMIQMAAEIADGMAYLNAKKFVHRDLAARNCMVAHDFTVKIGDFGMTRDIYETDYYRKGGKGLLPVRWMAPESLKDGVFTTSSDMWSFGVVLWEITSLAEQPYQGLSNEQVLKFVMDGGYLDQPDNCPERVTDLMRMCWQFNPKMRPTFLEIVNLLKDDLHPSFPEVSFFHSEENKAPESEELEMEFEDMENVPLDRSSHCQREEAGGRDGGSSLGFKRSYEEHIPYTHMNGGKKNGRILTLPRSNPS

[1] = molecular target: T3, NIH-3T3 cells overexpressing human IR (Homo sapiens, UniProt P06213); assay: IR cellular autophosphorylation (DELFIA); assay type: cell-based; settings: 2 h compound, insulin 3 ug/ml for 15 minutes, IC50 category
T3 construct: expressed in transfected cells; host or cells: NIH-3T3 (mouse fibroblasts)
T3 sequence (P06213 28-1382): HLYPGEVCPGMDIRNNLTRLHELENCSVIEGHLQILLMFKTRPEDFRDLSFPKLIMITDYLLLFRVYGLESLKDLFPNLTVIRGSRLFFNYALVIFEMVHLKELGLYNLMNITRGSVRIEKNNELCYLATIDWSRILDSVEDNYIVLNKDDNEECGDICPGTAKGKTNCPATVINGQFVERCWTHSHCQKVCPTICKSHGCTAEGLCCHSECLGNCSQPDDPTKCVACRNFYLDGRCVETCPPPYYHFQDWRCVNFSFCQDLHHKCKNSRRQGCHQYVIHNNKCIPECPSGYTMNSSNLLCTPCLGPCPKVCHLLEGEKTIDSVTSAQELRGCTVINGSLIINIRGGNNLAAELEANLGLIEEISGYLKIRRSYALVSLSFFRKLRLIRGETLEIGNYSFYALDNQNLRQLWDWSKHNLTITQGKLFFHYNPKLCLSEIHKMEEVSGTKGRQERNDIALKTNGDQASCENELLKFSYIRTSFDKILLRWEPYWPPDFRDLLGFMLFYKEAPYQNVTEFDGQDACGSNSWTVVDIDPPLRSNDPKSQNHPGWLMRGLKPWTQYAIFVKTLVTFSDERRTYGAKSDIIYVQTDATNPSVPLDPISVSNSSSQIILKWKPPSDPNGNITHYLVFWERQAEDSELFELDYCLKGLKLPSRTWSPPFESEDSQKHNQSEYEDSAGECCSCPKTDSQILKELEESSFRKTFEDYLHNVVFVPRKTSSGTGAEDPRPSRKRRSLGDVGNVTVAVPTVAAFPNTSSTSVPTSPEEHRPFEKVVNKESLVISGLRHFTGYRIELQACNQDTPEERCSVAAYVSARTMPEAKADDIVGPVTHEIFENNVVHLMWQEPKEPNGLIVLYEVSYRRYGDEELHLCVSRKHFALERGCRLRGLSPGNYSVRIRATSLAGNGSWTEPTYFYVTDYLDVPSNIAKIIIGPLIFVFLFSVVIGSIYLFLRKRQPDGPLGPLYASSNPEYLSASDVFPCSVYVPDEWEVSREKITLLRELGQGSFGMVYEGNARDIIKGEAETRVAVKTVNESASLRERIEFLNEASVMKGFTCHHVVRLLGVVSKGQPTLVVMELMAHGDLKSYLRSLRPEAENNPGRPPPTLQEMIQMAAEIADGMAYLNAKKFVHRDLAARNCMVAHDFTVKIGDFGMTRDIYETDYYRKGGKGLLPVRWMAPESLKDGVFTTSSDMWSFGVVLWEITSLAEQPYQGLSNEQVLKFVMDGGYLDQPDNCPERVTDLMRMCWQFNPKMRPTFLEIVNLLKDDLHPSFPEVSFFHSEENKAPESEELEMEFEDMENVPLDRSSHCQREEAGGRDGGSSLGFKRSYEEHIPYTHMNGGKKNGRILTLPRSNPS
Procedure, shortened: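 Receptor autophosphorylation measured by DELFIA, capturing IGF-1R or IRβ and detecting with europium anti-pTyr, reported as percent of IGF-1- or insulin-stimulated signal. Compounds (30 uM to 1.5 nM) added 2 h before ligand, then 15 min stimulation (IGF-1 30 ng/ml or insulin 3 ug/ml).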

SMILES	IC50 (human IGF1R (hIGF1R)) [nM]	IC50 (human IR (hIR)) [nM]	IC50 [1] [nM]
CCCN1CCC=C(c2ccc(Nc3nc(Nc4ccccc4C(N)=O)c4cc[nH]c4n3)c(OC)c2)C1 [Example 2, 2-[(2-{[2-(methyloxy)-4-(1-propyl-1,2,5,6-tetrahydro-3-pyridinyl)phenyl]amino}-1H-pyrrolo[2,3-d]pyrimidin-4-yl)amino]benzamide]	0.251 to 1	0.251 to 1	100 to 500
CCCN1CCCC(c2ccc(Nc3nc(Nc4ccccc4C(N)=O)c4cc[nH]c4n3)c(OC)c2)C1 (stereo not drawn) [Example 3, 2-[(2-{[2-(methyloxy)-4-(1-propyl-3-piperidinyl)phenyl]amino}-1H-pyrrolo[2,3-d]pyrimidin-4-yl)amino]benzamide]	0.251 to 1	0.251 to 1	< 100
COc1cc(N2CCN(C(C)C)CC2)ccc1Nc1nc(Nc2ccccc2C(N)=O)c2cc[nH]c2n1 [Example 7, 2-[(2-{[4-[4-(1-methylethyl)-1-piperazinyl]-2-(methyloxy)phenyl]amino}-1H-pyrrolo[2,3-d]pyrimidin-4-yl)amino]benzamide]	0.251 to 1	0.251 to 1	100 to 500
COc1ccc(NC(=O)CN(C)C)cc1Nc1nc(Nc2ccccc2C(N)=O)c2cc[nH]c2n1 [Example 15, 2-[(2-{[5-[(N,N-dimethylglycyl)amino]-2-(methyloxy)phenyl]amino}-1H-pyrrolo[2,3-d]pyrimidin-4-yl)amino]benzamide]	0.251 to 1	0.251 to 1	–
CN(C)CC(=O)Nc1ccc(OC(F)(F)F)c(Nc2nc(Nc3ccccc3C(N)=O)c3cc[nH]c3n2)c1 [Example 16, 2-{[2-({5-[(N,N-dimethylglycyl)amino]-2-[(trifluoromethyl)oxy]phenyl}amino)-1H-pyrrolo[2,3-d]pyrimidin-4-yl]amino}benzamide]	0.251 to 1	0.251 to 1	100 to 500
CN(C)CC(=O)Nc1ccc(F)c(Nc2nc(Nc3ccccc3C(N)=O)c3cc[nH]c3n2)c1 [Example 17, 2-{[2-({5-[(N,N-dimethylglycyl)amino]-2-fluorophenyl}amino)-1H-pyrrolo[2,3-d]pyrimidin-4-yl]amino}benzamide]	0.251 to 1	0.251 to 1	–
COc1ccc(C(N)=O)c(Nc2nc(Nc3ccc(N4CCOC[C@@H]4C)cc3OC)nc3[nH]ccc23)c1 [Example 39, 2-[(2-{[4-[(3S)-3-methyl-4-morpholinyl]-2-(methyloxy)phenyl]amino}-1H-pyrrolo[2,3-d]pyrimidin-4-yl)amino]-4-(methyloxy)benzamide]	5.01 to 200	1.26 to 3.98	–
COc1cc2c(cc1Nc1nc(Nc3cccc(F)c3C(N)=O)c3cc[nH]c3n1)N(C(=O)CN(C)C)CC2 [Example 53, 2-[(2-{[1-(N,N-dimethylglycyl)-5-(methyloxy)-2,3-dihydro-1H-indol-6-yl]amino}-1H-pyrrolo[2,3-d]pyrimidin-4-yl)amino]-6-fluorobenzamide]	0.251 to 1	–	< 100
CCCN1CCC=C(c2ccc(Nc3nc(Nc4ccc(F)cc4C(N)=O)c4cc[nH]c4n3)c(OC)c2)C1 [Example 54, 5-fluoro-2-[(2-{[2-(methyloxy)-4-(1-propyl-1,2,5,6-tetrahydro-3-pyridinyl)phenyl]amino}-1H-pyrrolo[2,3-d]pyrimidin-4-yl)amino]benzamide]	0.251 to 1	0.251 to 1	100 to 500
COc1cc(C2CCN(C(C)C)CC2)ccc1Nc1nc(Nc2ccc(F)cc2C(N)=O)c2cc[nH]c2n1 [Example 58, 5-fluoro-2-[(2-{[4-[1-(1-methylethyl)-4-piperidinyl]-2-(methyloxy)phenyl]amino}-1H-pyrrolo[2,3-d]pyrimidin-4-yl)amino]benzamide]	0.251 to 1	0.251 to 1	< 100
COc1cc(N2CCC(N3CCOCC3)CC2)ccc1Nc1nc(Nc2cc(F)ccc2C(N)=O)c2cc[nH]c2n1 [Example 78, 4-fluoro-2-{[2-({2-(methyloxy)-4-[4-(4-morpholinyl)-1-piperidinyl]phenyl}amino)-1H-pyrrolo[2,3-d]pyrimidin-4-yl]amino}benzamide]	0.251 to 1	1.26 to 3.98	100 to 500
COc1cc(N2CCOC[C@@H]2C)ccc1Nc1nc(Nc2cc(F)ccc2C(N)=O)c2cc[nH]c2n1 [Example 84, 4-fluoro-2-[(2-{[4-[(3S)-3-methyl-4-morpholinyl]-2-(methyloxy)phenyl]amino}-1H-pyrrolo[2,3-d]pyrimidin-4-yl)amino]benzamide]	0.251 to 1	0.251 to 1	< 100
COc1ccc(OC[C@@H](O)CN(C)C)cc1Nc1nc(Nc2cc(F)ccc2C(N)=O)c2cc[nH]c2n1 [Example 86, 2-[(2-{[5-{[(2S)-3-(dimethylamino)-2-hydroxypropyl]oxy}-2-(methyloxy)phenyl]amino}-1H-pyrrolo[2,3-d]pyrimidin-4-yl)amino]-4-fluorobenzamide]	0.251 to 1	0.251 to 1	> 500
COc1cc(N2CCN(C(C)C)CC2)ccc1Nc1nc(Nc2cc(F)cc(F)c2C(N)=O)c2cc[nH]c2n1 [Example 89, 2,4-difluoro-6-[(2-{[4-[4-(1-methylethyl)-1-piperazinyl]-2-(methyloxy)phenyl]amino}-1H-pyrrolo[2,3-d]pyrimidin-4-yl)amino]benzamide]	0.251 to 1	0.251 to 1	< 100
COc1cc(N2CCN(C(C)C)CC2)c(C)cc1Nc1nc(Nc2cc(F)cc(F)c2C(N)=O)c2cc[nH]c2n1 [Example 91, 2,4-difluoro-6-[(2-{[5-methyl-4-[4-(1-methylethyl)-1-piperazinyl]-2-(methyloxy)phenyl]amino}-1H-pyrrolo[2,3-d]pyrimidin-4-yl)amino]benzamide]	0.251 to 1	1.26 to 3.98	< 100
CCCN1CCC(c2ccc(Nc3nc(Nc4cc(F)cc(F)c4C(N)=O)c4cc[nH]c4n3)c(OC)c2)CC1 [Example 92, 2,4-difluoro-6-[(2-{[2-(methyloxy)-4-(1-propyl-4-piperidinyl)phenyl]amino}-1H-pyrrolo[2,3-d]pyrimidin-4-yl)amino]benzamide]	0.251 to 1	0.251 to 1	< 100
COc1ccc(OC[C@@H](O)CN2CCCC2)cc1Nc1nc(Nc2cc(F)c(F)cc2C(N)=O)c2cc[nH]c2n1 [Example 107, 4,5-difluoro-2-[(2-{[5-{[(2S)-2-hydroxy-3-(1-pyrrolidinyl)propyl]oxy}-2-(methyloxy)phenyl]amino}-1H-pyrrolo[2,3-d]pyrimidin-4-yl)amino]benzamide]	0.251 to 1	0.251 to 1	> 500
COc1cc2c(cc1Nc1nc(Nc3cccc(F)c3C(N)=O)c3cc[nH]c3n1)N(CCN(C)C)CC2 [Example 117, 2-[(2-{[1-[2-(dimethylamino)ethyl]-5-(methyloxy)-2,3-dihydro-1H-indol-6-yl]amino}-1H-pyrrolo[2,3-d]pyrimidin-4-yl)amino]-6-fluorobenzamide]	5.01 to 200	5.01 to 158	> 500
COc1cc2c(cc1Nc1nc(Nc3cccc(F)c3C(N)=O)c3cc[nH]c3n1)N(C(=O)CCN(C)C)CC2 [Example 118, 2-[(2-{[1-(N,N-dimethyl-b-alanyl)-5-(methyloxy)-2,3-dihydro-1H-indol-6-yl]amino}-1H-pyrrolo[2,3-d]pyrimidin-4-yl)amino]-6-fluorobenzamide]	5.01 to 200	5.01 to 158	> 500
COc1cc2c(cc1Nc1nc(Nc3cc(Cl)cc(F)c3C(N)=O)c3cc[nH]c3n1)N(C(=O)CN(C)C)CC2 [Example 119, 4-chloro-2-[(2-{[1-(N,N-dimethylglycyl)-5-(methyloxy)-2,3-dihydro-1H-indol-6-yl]amino}-1H-pyrrolo[2,3-d]pyrimidin-4-yl)amino]-6-fluorobenzamide]	0.251 to 1	0.251 to 1	< 100
COc1cc2c(cc1Nc1nc(Nc3cccc(F)c3C(N)=O)c3cc[nH]c3n1)CN(C)CC2 [Example 121, 2-fluoro-6-[(2-{[2-methyl-6-(methyloxy)-1,2,3,4-tetrahydro-7-isoquinolinyl]amino}-1H-pyrrolo[2,3-d]pyrimidin-4-yl)amino]benzamide]	5.01 to 200	1.26 to 3.98	100 to 500
CCCN1CCC(N2CCc3cc(OC)c(Nc4nc(Nc5cccc(F)c5C(N)=O)c5cc[nH]c5n4)cc3C2)CC1 [Example 122, 2-fluoro-6-[(2-{[6-(methyloxy)-2-(1-propyl-4-piperidinyl)-1,2,3,4-tetrahydro-7-isoquinolinyl]amino}-1H-pyrrolo[2,3-d]pyrimidin-4-yl)amino]benzamide]	5.01 to 200	1.26 to 3.98	< 100
COc1cc2c(cc1Nc1nc(Nc3cc(F)cc(F)c3C(N)=O)c3cc[nH]c3n1)NCCC2 [Example 220, 2,4-difluoro-6-[(2-{[6-(methyloxy)-1,2,3,4-tetrahydro-7-quinolinyl]amino}-1H-pyrrolo[2,3-d]pyrimidin-4-yl)amino]benzamide]	5.01 to 200	–	> 500
CNC(=O)c1c(F)cccc1Nc1nc(Nc2cc3c(cc2OC)CCC(=O)N3)nc2[nH]ccc12 [Example 222, 2-fluoro-N-methyl-6-[(2-{[6-(methyloxy)-2-oxo-1,2,3,4-tetrahydro-7-quinolinyl]amino}-1H-pyrrolo[2,3-d]pyrimidin-4-yl)amino]benzamide]	5.01 to 200	–	> 500
